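All cell lines were grown in 96-well plates and treated with compound for 48 hours. Abbreviation: GI50, concentration required for 50% inhibition of growth. TGI: concentration producing complete growth inhibition.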
What was measured:
Assay in all cases: NCI-60 cell line screen, 48 h
SN12C renal = system: SN12C renal
IGROV1 ovarian = system: IGROV1 ovarian
HOP-62 NSCLC = system: HOP-62 NSCLC
SNB-75 CNS = system: SNB-75 CNS
HT29 colon = system: HT29 colon
UACC-62 melanoma = system: UACC-62 melanoma
M14 melanoma = system: M14 melanoma
K-562 leukemia = system: K-562 leukemia
HCT-116 colon = system: HCT-116 colon
UO-31 renal = system: UO-31 renal
OVCAR-5 ovarian = system: OVCAR-5 ovarian
SK-MEL-5 melanoma = system: SK-MEL-5 melanoma
MDA-MB-435 = system: MDA-MB-435
MOLT-4 leukemia = system: MOLT-4 leukemia
SF-539 CNS = system: SF-539 CNS
CAKI-1 renal = system: CAKI-1 renal
TK-10 renal = system: TK-10 renal
SF-268 CNS = system: SF-268 CNS
BT-549 breast = system: BT-549 breast
NCI-H23 lung = system: NCI-H23 lung
SK-MEL-28 melanoma = system: SK-MEL-28 melanoma
T-47D breast = system: T-47D breast
MCF7 breast = system: MCF7 breast
EKVX NSCLC = system: EKVX NSCLC
A498 renal = system: A498 renal
MALME-3M melanoma = system: MALME-3M melanoma
KM12 colon = system: KM12 colon
SW-620 colon = system: SW-620 colon
HCT-15 colon = system: HCT-15 colon

`Cc1cc(Cl)ccc1Nc1nc(C(F)(F)F)ccc1C(=O)N/N=C/c1cccc(O)c1` was tested, and the GI50 (SN12C renal) was 6.77 µM, the TGI (SN12C renal) was 23.8 µM and the GI50 (IGROV1 ovarian) was 3.85 µM. It also gave a TGI (IGROV1 ovarian) of 23.4 µM, a GI50 (HOP-62 NSCLC) of 7.22 µM and a TGI (HOP-62 NSCLC) of 20.7 µM. The GI50 (SNB-75 CNS) was 2.07 µM, the TGI (SNB-75 CNS) was 13.8 µM and the GI50 (HT29 colon) was 5.03 µM. It also gave a TGI (HT29 colon) of 16.9 µM, a GI50 (UACC-62 melanoma) of 5.88 µM and a TGI (UACC-62 melanoma) of 19.5 µM. It also gave a GI50 (M14 melanoma) of 4.53 µM, a TGI (M14 melanoma) of 17.3 µM and a GI50 (K-562 leukemia) of 1.99 µM. It also gave a TGI (K-562 leukemia) of 7.1 µM, a GI50 (HCT-116 colon) of 4.42 µM and a TGI (HCT-116 colon) of 16.5 µM. The GI50 (UO-31 renal) was 4.98 µM, the TGI (UO-31 renal) was 29 µM and the GI50 (OVCAR-5 ovarian) was 5.96 µM. The TGI (OVCAR-5 ovarian) was 25 µM, the GI50 (SK-MEL-5 melanoma) was 3.35 µM and the TGI (SK-MEL-5 melanoma) was 12.6 µM. It also gave a GI50 (MDA-MB-435) of 2.17 µM, a TGI (MDA-MB-435) of 13.7 µM and a GI50 (MOLT-4 leukemia) of 1.01 µM. The TGI (MOLT-4 leukemia) was 3.27 µM, the GI50 (SF-539 CNS) was 4.38 µM and the TGI (SF-539 CNS) was 15.8 µM. For the same compound, the GI50 (CAKI-1 renal) was 0.202 µM, the TGI (CAKI-1 renal) was 5.98 µM and the GI50 (TK-10 renal) was 2.45 µM. For the same compound, the TGI (TK-10 renal) was 12.3 µM, the GI50 (SF-268 CNS) was 1.6 µM and the TGI (SF-268 CNS) was 12.2 µM. The GI50 (BT-549 breast) was 0.861 µM, the TGI (BT-549 breast) was 4.24 µM and the GI50 (NCI-H23 lung) was 6.66 µM. For the same compound, the TGI (NCI-H23 lung) was 20.1 µM, the GI50 (SK-MEL-28 melanoma) was 3.65 µM and the TGI (SK-MEL-28 melanoma) was 16.8 µM. For the same compound, the GI50 (T-47D breast) was 0.112 µM, the TGI (T-47D breast) was 3.13 µM and the GI50 (MCF7 breast) was 2.21 µM. The TGI (MCF7 breast) was 12.7 µM, the GI50 (EKVX NSCLC) was 0.814 µM and the TGI (EKVX NSCLC) was 7.19 µM. For the same compound, the GI50 (A498 renal) was 4.23 µM, the TGI (A498 renal) was 18.1 µM and the GI50 (MALME-3M melanoma) was 1.75 µM. For the same compound, the TGI (MALME-3M melanoma) was 8.8 µM, the GI50 (KM12 colon) was 2.56 µM and the TGI (KM12 colon) was 11.9 µM. The GI50 (SW-620 colon) was 3.39 µM, the TGI (SW-620 colon) was 14.9 µM and the GI50 (HCT-15 colon) was 2.51 µM. It also gave a TGI (HCT-15 colon) of 16 µM.

From PubChem BioAssay (NCI)
